The results in this text go back to ChEMBL document CHEMBL4373745, “Design, synthesis and cytotoxicity of BODIPY FL labelled triterpenoids” (Eur J Med Chem, 2020).

The subject of test [1] is NIH3T3. Kind of test: Cytotoxicity against mouse NIH/3T3 cells assessed as reduction in cell viability incubated for 96 hrs by SRB assay. The note with it: NIH3T3, 96 h. Type of test: cell-based. (In general: Sulforhodamine B stains cellular protein and so reports cell mass.)
The test system of test [2] is A-375. Put plainly: Cytotoxicity against human A375 cells assessed as reduction in cell viability incubated for 96 hrs by SRB assay. Type of test: functional, cell-based. The note with it: A-375, 96 h.
For test [3], the system named is MCF7. Put plainly: Cytotoxicity against human MCF7 cells assessed as reduction in cell viability incubated for 96 hrs by SRB assay. Type of test: functional, cell-based. The note with it: MCF7, 96 h.
For test [4], the system named is A2780. Kind of test: Cytotoxicity against human A2780 cells assessed as reduction in cell viability incubated for 96 hrs by SRB assay. The class given is functional, cell-based. The note with it: A2780, 96 h.
Test [5] has as its system FaDu. Put plainly: Cytotoxicity against human FADU cells assessed as reduction in cell viability incubated for 96 hrs by SRB assay. Type of test: functional, cell-based.
In test [6] the test system is HT-29. Put plainly: Cytotoxicity against human HT-29 cells assessed as reduction in cell viability incubated for 96 hrs by SRB assay. Type of test: functional, cell-based. The note with it: HT-29, 96 h.

A word on the EC50: it is the midpoint of the concentration-response curve. `C[C@H]1[C@H](C)CC[C@]2(C(=O)O)CC[C@]3(C)C(=CC[C@@H]4[C@@]5(C)CC[C@H](O)C(C)(C)[C@@H]5CC[C@]43C)[C@H]12` [URSOLIC ACID]: in test [1], the EC50 was 13.1 µM.

For `C=C(C)[C@@H]1CC[C@]2(C(=O)NCCNC(=O)CCC3=[N+]4C(=Cc5c(C)cc(C)n5[B-]4(F)F)C=C3)CC[C@]3(C)[C@H](CC[C@@H]4[C@@]5(C)CC[C@H](OC(C)=O)C(C)(C)[C@@H]5CC[C@]43C)[C@@H]12`, the half-maximal effective concentration (EC50) in test [2] is above 30 µM; in test [3], 11.3 µM; in test [4], above 30 µM; in test [5], above 30 µM; in test [1] it was above 30 µM; in test [6] it was above 30 µM.

As for `CC(=O)O[C@H]1CC[C@]2(C)[C@H]3CC=C4[C@@H]5[C@@H](C)[C@H](C)CC[C@]5(C(=O)N5CCN(C(=O)CCC6=[N+]7C(=Cc8c(C)cc(C)n8[B-]7(F)F)C=C6)CC5)CC[C@@]4(C)[C@]3(C)CC[C@H]2C1(C)C`, the EC50 in test [2] was 21.6 µM; in test [3] it was 24.4 µM; in test [4], above 30 µM; in test [5], above 30 µM; in test [1], above 30 µM; in test [6], above 30 µM.

Take `C=C(C)[C@@H]1CC[C@]2(COC(C)=O)CC[C@]3(C)[C@H](CC[C@@H]4[C@@]5(C)CC[C@H](OC(=O)CCC6=[N+]7C(=Cc8c(C)cc(C)n8[B-]7(F)F)C=C6)C(C)(C)[C@@H]5CC[C@]43C)[C@@H]12`: the EC50 in test [3] came out at 4.3 µM; in test [4], 2.7 µM; in test [5] it was 4.7 µM; in test [1], 9.2 µM; in test [6], 3.1 µM.

As for `Cc1cc(C)n2c1C=C1C=CC(CCC(=O)O)=[N+]1[B-]2(F)F`, the EC50 in test [2], in test [3], in test [4], in test [5], in test [1] and in test [6] was above 30 µM throughout.

For the molecule `C=C(C)[C@@H]1CC[C@]2(C(=O)N3CCNCC3)CC[C@]3(C)[C@H](CC[C@@H]4[C@@]5(C)CC[C@H](OC(C)=O)C(C)(C)[C@@H]5CC[C@]43C)[C@@H]12`, in test [5], the EC50 was found to be 1.3 µM.

Turning to `C=C(C)[C@@H]1CC[C@]2(COC(C)=O)CC[C@]3(C)[C@H](CC[C@@H]4[C@@]5(C)CC[C@H](OC(C)=O)C(C)(C)[C@@H]5CC[C@]43C)[C@@H]12` [BETULIN DIACETATE], the EC50 in test [2], in test [3], in test [4], in test [5], in test [1] and in test [6] was above 30 µM throughout.

Turning to `C=C(C)[C@@H]1CC[C@]2(C(=O)NCCN)CC[C@]3(C)[C@H](CC[C@@H]4[C@@]5(C)CC[C@H](OC(C)=O)C(C)(C)[C@@H]5CC[C@]43C)[C@@H]12`, the EC50 in test [3] worked out at 1.3 µM; in test [4], 1.4 µM; in test [5] it was 1.2 µM; in test [1], 1.4 µM; in test [6] it was 1 µM.

For `CC(=O)O[C@H]1CC[C@]2(C)[C@H]3CC=C4[C@@H]5CC(C)(C)CC[C@]5(C(=O)N5CCN(C(=O)CCC6=[N+]7C(=Cc8c(C)cc(C)n8[B-]7(F)F)C=C6)CC5)CC[C@@]4(C)[C@]3(C)CC[C@H]2C1(C)C`, the EC50 in test [2] is 29.8 µM; in test [3] it was above 30 µM; in test [4], above 30 µM; in test [5] it was above 30 µM; in test [1] it was above 30 µM; in test [6], above 30 µM.

For the molecule `CC(=O)O[C@H]1CC[C@]2(C)[C@H]3CC=C4[C@@H]5[C@@H](C)[C@H](C)CC[C@]5(C(=O)N5CCNCC5)CC[C@@]4(C)[C@]3(C)CC[C@H]2C1(C)C`, the EC50 in test [5] was 1.9 µM.

As for `CC1(C)CC[C@]2(C(=O)O)CC[C@]3(C)C(=CC[C@@H]4[C@@]5(C)CC[C@H](O)C(C)(C)[C@@H]5CC[C@]43C)[C@@H]2C1` [OLEANOLIC_ACID], the EC50 in test [4] and in test [5] was above 30 µM in each case.

Take `C=C(C)[C@@H]1CC[C@]2(CO)CC[C@]3(C)[C@H](CC[C@@H]4[C@@]5(C)CC[C@H](O)C(C)(C)[C@@H]5CC[C@]43C)[C@@H]12` [BETULIN]: the EC50 in test [2], in test [3], in test [4], in test [5], in test [1] and in test [6] was above 30 µM throughout.

For the molecule `C=C(C)[C@@H]1CC[C@]2(C(=O)N3CCN(C(=O)CCC4=[N+]5C(=Cc6c(C)cc(C)n6[B-]5(F)F)C=C4)CC3)CC[C@]3(C)[C@H](CC[C@@H]4[C@@]5(C)CC[C@H](OC(C)=O)C(C)(C)[C@@H]5CC[C@]43C)[C@@H]12`, the EC50 in test [2], in test [3], in test [4], in test [5], in test [1] and in test [6] was above 30 µM each time.

Take `CC(=O)O[C@H]1CC[C@]2(C)[C@H]3CC=C4[C@@H]5CC(C)(C)CC[C@]5(C(=O)NCCNC(=O)CCC5=[N+]6C(=Cc7c(C)cc(C)n7[B-]6(F)F)C=C5)CC[C@@]4(C)[C@]3(C)CC[C@H]2C1(C)C`: the EC50 in test [2] is 4.3 µM; in test [3], 2.3 µM; in test [4], 10.3 µM; in test [5], 7 µM; in test [1] it was 3.4 µM; in test [6], above 30 µM.

For the molecule `C=C(C)[C@@H]1CC[C@]2(CO)CC[C@]3(C)[C@H](CC[C@@H]4[C@@]5(C)CC[C@H](OC(C)=O)C(C)(C)[C@@H]5CC[C@]43C)[C@@H]12`, the EC50 in test [2], in test [5], in test [1] and in test [6] was above 30 µM in each case.

With `CC(=O)O[C@H]1CC[C@]2(C)[C@H]3CC=C4[C@@H]5[C@@H](C)[C@H](C)CC[C@]5(C(=O)NCCN)CC[C@@]4(C)[C@]3(C)CC[C@H]2C1(C)C`, the EC50 was 2 µM in test [3]; 2.3 µM in test [4]; 3.7 µM in test [5]; 2.6 µM in test [1]; 1.8 µM in test [6].

Take `CC(=O)O[C@H]1CC[C@]2(C)[C@H]3CC=C4[C@@H]5CC(C)(C)CC[C@]5(C(=O)NCCN)CC[C@@]4(C)[C@]3(C)CC[C@H]2C1(C)C`: the EC50 in test [3] turned out to be 1.7 µM; in test [4], 3.1 µM; in test [5], 4.3 µM; in test [1] it was 2.1 µM; in test [6], 2 µM.

Consider `CC(=O)O[C@H]1CC[C@]2(C)[C@H]3C(=O)C=C4[C@@H]5C[C@@](C)(C(=O)N6CCNCC6)CC[C@]5(C)CC[C@@]4(C)[C@]3(C)CC[C@H]2C1(C)C`, for which the concentration giving a half-maximal response (EC50) in test [3] stood at 8.4 µM; in test [4] it was 8.2 µM; in test [5], 8.7 µM; in test [1], 8.7 µM; in test [6], 4.4 µM.

`CC(=O)O[C@H]1CC[C@]2(C)[C@H]3C(=O)C=C4[C@@H]5C[C@@](C)(C(=O)N6CCN(C(=O)CCC7=[N+]8C(=Cc9c(C)cc(C)n9[B-]8(F)F)C=C7)CC6)CC[C@]5(C)CC[C@@]4(C)[C@]3(C)CC[C@H]2C1(C)C`: the EC50 in test [2] was 8.3 µM; in test [3] it was 7.9 µM; in test [4], 7.8 µM; in test [5], 8.6 µM; in test [1] it was 9.1 µM; in test [6], above 30 µM.

As for `CC(=O)O[C@H]1CC[C@]2(C)[C@H]3C(=O)C=C4[C@@H]5C[C@@](C)(C(=O)NCCN)CC[C@]5(C)CC[C@@]4(C)[C@]3(C)CC[C@H]2C1(C)C`, the EC50 amounted to 3.2 µM in test [3]; 2 µM in test [4]; 5.7 µM in test [5]; 4.3 µM in test [1]; 4.3 µM in test [6].

On to `CC(=O)O[C@H]1CC[C@]2(C)[C@H]3C(=O)C=C4[C@@H]5C[C@@](C)(C(=O)NCCNC(=O)CCC6=[N+]7C(=Cc8c(C)cc(C)n8[B-]7(F)F)C=C6)CC[C@]5(C)CC[C@@]4(C)[C@]3(C)CC[C@H]2C1(C)C`, for which the EC50 was 23.9 µM in test [2]; 7.2 µM in test [3]; 18.4 µM in test [4]; above 30 µM in test [5]; above 30 µM in test [1]; 26.5 µM in test [6].

`CC(=O)O[C@H]1CC[C@]2(C)[C@H]3CC=C4[C@@H]5[C@@H](C)[C@H](C)CC[C@]5(C(=O)NCCNC(=O)CCC5=[N+]6C(=Cc7c(C)cc(C)n7[B-]6(F)F)C=C5)CC[C@@]4(C)[C@]3(C)CC[C@H]2C1(C)C`: the EC50 is 4 µM in test [2]; 2.2 µM in test [3]; 8.7 µM in test [4]; 5.7 µM in test [5]; 3 µM in test [1]; above 30 µM in test [6].

As to `CC1(C)[C@@H](O)CC[C@]2(C)[C@H]3C(=O)C=C4[C@@H]5C[C@@](C)(C(=O)O)CC[C@]5(C)CC[C@@]4(C)[C@]3(C)CC[C@@H]12` [ENOXOLONE], the concentration for a half-maximal effect (EC50) in test [5] is above 30 µM.

With `CC(=O)O[C@H]1CC[C@]2(C)[C@H]3CC=C4[C@@H]5CC(C)(C)CC[C@]5(C(=O)N5CCNCC5)CC[C@@]4(C)[C@]3(C)CC[C@H]2C1(C)C`, the EC50 in test [5] worked out at 1.6 µM.

With `C=C(C)[C@@H]1CC[C@]2(COC(=O)CCC3=[N+]4C(=Cc5c(C)cc(C)n5[B-]4(F)F)C=C3)CC[C@]3(C)[C@H](CC[C@@H]4[C@@]5(C)CC[C@H](OC(C)=O)C(C)(C)[C@@H]5CC[C@]43C)[C@@H]12`, the 50% effective concentration (EC50) in test [2] is above 30 µM; in test [3] it was 28.9 µM; in test [4] it was above 30 µM; in test [5], above 30 µM; in test [1], above 30 µM; in test [6], above 30 µM.
